Assay results published in PubChem BioAssay AID624375 (Broad Institute, 2012).
Records with an inconclusive call do not appear. Calls of active or inactive are those of the source.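 The calls were made as follows: active = fitted curve reaches -35% activity change at a concentration under twice the top valid dose, in every replicate test; inconclusive = replicate tests disagree on the call; inactive = the rest, including activity in the opposite direction.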

Legend:
[1] = test system: EBV-transformed LCL viability, CellTiter-Glo ATP luminescence, 48 h; assay: EBV-transformed lymphoblastoid cell viability decrease, dose response, EBV LMP1 NF-kB inhibitor project, CellTiter-Glo, dry powder, replicate tests (AID 624375)
[2] = as above; details: EBV-transformed LCL viability, CellTiter-Glo ATP luminescence, 48 h

COc1ccc(NC(=O)c2ccc(OC(C)C(=O)O)cc2)cc1Cl (centres undefined)
AC35 [1]: 34.1 µM

C[C@@H]1CCCCO[C@@H](CN(C)Cc2ccccc2)[C@H](C)CN([C@H](C)CO)C(=O)c2cc(NC(=O)Nc3ccc4c(c3)OCO4)ccc2O1
activity change, negative = inhibition ([2]; at 19.5 µM (top of the series)): 1.71% (inactive)

C/C=C/C/C=C/CCC(=O)[C@H]1O[C@H]1C(N)=O
activity change, negative = inhibition ([2]; at 10 µM (top of the series)): -4.56% (inactive)

O=c1[nH]c(=O)n([C@H]2C[C@H](O)[C@@H](CO)O2)cc1C(F)(F)F
AC35 [1]: 10.1 µM

C/C(=N\NC(=S)Nc1cccc(C)c1)c1ccccn1
AC35 [1]: < 0.08 µM

S=C(NCc1ccccn1)N/N=C/c1ccccn1
AC35 [1]: < 0.08 µM

CCc1ccc(/C=C/C(=O)C2C(=O)c3ccccc3C2=O)cc1
activity change, negative = inhibition ([2]; at 19.5 µM (top of the series)): 10.9% (inactive)

CCCSc1nnc2c3ccccc3n(Cc3ccccc3)c2n1
activity change, negative = inhibition ([2]; at 19.5 µM (top of the series)): -1.02% (inactive)

CC(=O)Nc1nc(C)c(-c2csc(Nc3ccc(O)cc3)n2)s1
AC35 [1]: 22.8 µM

C[C@@H]1CCCCO[C@H](CN(C)C(=O)NC2CCCCC2)[C@H](C)CN([C@@H](C)CO)C(=O)c2cc(NC(=O)C3CCCCC3)ccc2O1
AC35 [1]: 22.1 µM

CSC(=S)N/N=C(\C)c1cccc(C)n1
AC35 [1]: 0.687 µM

C/C(=N\NC(=S)N1CCN(c2ccccn2)CC1)c1ccccn1
AC35 [1]: < 0.08 µM

S=C(N/N=C(\c1ccccc1)c1ccccn1)N(Cc1ccccn1)Cc1ccccn1
AC35 [1]: 0.135 µM

Nc1ccn([C@@H]2O[C@H](CO)[C@@H](O)C2O)c(=O)n1 (some centres undefined)
AC35 [1]: 26.1 µM

COc1ccc(-c2cc3nc4n(c(=O)c3s2)CCC4)cc1
activity change, negative = inhibition ([2]; at 19.5 µM (top of the series)): -3.35% (inactive)

CCN1CCN(C(c2cccnc2)c2cc(Cl)c3cccnc3c2O)CC1 (centres undefined)
AC35 [1]: 26.5 µM

C[C@@H]1CN([C@@H](C)CO)C(=O)c2cc(NC(=O)Nc3ccc(C(F)(F)F)cc3)ccc2O[C@@H](C)CCCCO[C@@H]1CN(C)CC1CCCCC1
AC35 [1]: 45.7 µM

C[C@@H]1CCCCO[C@H](CN(C)C(=O)c2ccccc2)[C@H](C)CN([C@@H](C)CO)C(=O)c2cc(NC(=O)Nc3ccc(F)cc3)ccc2O1
activity change, negative = inhibition ([2]; at 19.5 µM (top of the series)): 2.16% (inactive)

CCC(Sc1nnc2c3ccccc3n(Cc3ccc(Br)cc3)c2n1)C(=O)NCCCN1CCOCC1 (centres undefined)
AC35 [1]: 8.58 µM

C[C@@H]1CN([C@@H](C)CO)C(=O)c2cc(NC(=O)Nc3ccc(C(F)(F)F)cc3)ccc2O[C@@H](C)CCCCO[C@H]1CN(C)Cc1ccc(C(F)(F)F)cc1
AC35 [1]: 30.8 µM

C/C(=N\NC(=S)N1CC2CCC(CC2)C1)c1cnccn1
AC35 [1]: < 0.08 µM

C[C@H]1CCCCO[C@@H](CN(C)CC2CCCCC2)[C@@H](C)CN([C@@H](C)CO)C(=O)c2cc(NC(=O)C3CCCCC3)ccc2O1
AC35 [1]: 18.1 µM

C/C(=N\NC(=S)N1CCCCC1)c1cccc(C)n1
AC35 [1]: < 0.08 µM

C/C(=N\NC(=S)N1CCCC1)c1ccccn1
AC35 [1]: < 0.08 µM

c1ccc(-c2cn3c4c(sc3n2)CCCC4)cc1
activity change, negative = inhibition ([2]; at 19.5 µM (top of the series)): 6.87% (inactive)

C/C(=N\NC(=S)Nc1ccc(C)cc1)c1ccccn1
AC35 [1]: < 0.08 µM

CCn1c2ccccc2c2cc(/C=N/n3cnnc3)ccc21
activity change, negative = inhibition ([2]; at 19.5 µM (top of the series)): -4.23% (inactive)

COc1cccc(/C=N/Nc2ncnc3c2ncn3Cc2ccccc2)c1O
activity change, negative = inhibition ([2]; at 19.5 µM (top of the series)): -7.51% (inactive)

C[C@@H]1CN([C@@H](C)CO)C(=O)c2cccc(NC(=O)Nc3cccc4ccccc34)c2O[C@H]1CN(C)C(=O)Nc1ccc(C(F)(F)F)cc1
AC35 [1]: 29.8 µM

COCCCNC(=O)C(C)Sc1nnc2c3cc(C)ccc3n(Cc3ccccc3F)c2n1 (centres undefined)
AC35 [1]: 25 µM

COc1ccc(-c2csc3ncnc(NCCN4CCOCC4)c23)cc1
activity change, negative = inhibition ([2]; at 19.5 µM (top of the series)): -6.51% (inactive)

C/C(=N\NC(=S)N1CC2CCC(CC2)C1)c1cccc(C)n1
AC35 [1]: 0.409 µM

C=C1C[C@]23C[C@@]1(O)CC[C@@H]2c1cccc(C)c1[C@@H]3C(=O)O
AC35 [1]: 9.19 µM

O=C(CCc1ccccc1)NC(c1cccs1)c1cc(Cl)c2cccnc2c1O (centres undefined)
activity change, negative = inhibition ([2]; at 19.5 µM (top of the series)): 4.93% (inactive)

Cc1ccnc(NC(=O)c2ccc(C(=O)c3ccccc3)cc2)c1
AC35 [1]: 24.1 µM

C[C@H](CO)N1C[C@H](C)[C@@H](CN(C)Cc2ccc(-c3ccccc3)cc2)Oc2ccc(NC(=O)Nc3cccc4ccccc34)cc2CC1=O
AC35 [1]: 28.8 µM

C/C(=N\NC(=S)N1CCC1)c1ccccn1
AC35 [1]: < 0.08 µM

C=C1C[C@]23C[C@@]1(O)CC[C@H]2[C@@]12C=C[C@H](O)[C@@](C)(C(=O)O1)[C@H]2[C@@H]3C(=O)O
activity change, negative = inhibition ([2]; at 12 µM (top of the series)): 5.8% (inactive)

C=CCN1Cc2ccccc2[C@@H]2OC(c3ccc(OCCCO)cc3)=N[C@]2(CCC(=O)OC(C)(C)C)C1=O
activity change, negative = inhibition ([2]; at 19.5 µM (top of the series)): 1.04% (inactive)

C[C@@H]1CN([C@@H](C)CO)C(=O)c2cc(NC(=O)Nc3ccc4c(c3)OCO4)ccc2O[C@H]1CN(C)CC1CCCCC1
AC35 [1]: 89.9 µM

C/C(=N\NC(=S)N1CC2CCC(CC2)C1)c1ccncn1
AC35 [1]: < 0.08 µM

Cc1ccc(NC(=O)C2CCN(S(=O)(=O)c3ccc4c(c3)NC(=O)C(C)S4)CC2)cc1Cl (centres undefined)
AC35 [1]: 45.7 µM

C/C(=N\NC(=S)Nc1ccccc1)c1ccccn1
AC35 [1]: < 0.08 µM

C/C(=N\NC(=S)N1CC2CCC(CC2)C1)c1ccccn1
AC35 [1]: < 0.08 µM

C[C@@H]1CCCCO[C@H](CN(C)S(=O)(=O)c2ccccc2)[C@@H](C)CN([C@@H](C)CO)C(=O)c2cc(N(C)C)ccc2O1
activity change, negative = inhibition ([2]; at 19.5 µM (top of the series)): -2.16% (inactive)

C/C(=N\NC(=S)N1CCN(C2CCCCCC2)CC1)c1ccccn1
AC35 [1]: < 0.08 µM

CSc1nc(-c2ccc(C)cc2)nc(C(Cl)Cl)n1
AC35 [1]: 21.7 µM

CCc1ccc(/C=C2\SC(=S)N(CCCC(=O)Nc3ccccn3)C2=O)cc1
activity change, negative = inhibition ([2]; at 19.5 µM (top of the series)): 3.41% (inactive)

COc1ccc2[nH]c(C(=O)N/N=C/c3ccc(O)cc3O)cc2c1
AC35 [1]: 26.7 µM

CC1=C(C(=O)OCc2ccc3c(c2)OCO3)C(c2ccc(F)cc2)NC(=O)N1 (centres undefined)
activity change, negative = inhibition ([2]; at 19.5 µM (top of the series)): -2.46% (inactive)

C/C(=N\NC(=S)Nc1ccccc1Cl)c1ccccn1
AC35 [1]: < 0.08 µM

O=C1/C(=C/c2ccncc2)SC(=S)N1Cc1ccccc1
AC35 [1]: 38.5 µM

Fc1ccc2c(c1)c1nnc(SCCN3CCOCC3)nc1n2Cc1ccccc1
AC35 [1]: 4.38 µM

CC(C)=CCN(C(=O)C#Cc1ccccc1)[C@H](CO)c1ccccc1
AC35 [1]: 8.22 µM

COc1ccccc1NC(=S)N/N=C(\C)c1ccccn1
AC35 [1]: < 0.08 µM

O=C(CSc1nnc2c3ccccc3n(Cc3ccccc3)c2n1)NCc1ccco1
AC35 [1]: 44.1 µM

C/C(=N\NC(=S)N1CCCCCC1)c1ccccn1
AC35 [1]: < 0.08 µM

C/C(=N\NC(=S)Nc1cccc(Cl)c1)c1ccccn1
AC35 [1]: < 0.08 µM

C[C@H](CO)N1C[C@H](C)[C@@H](CN(C)CC2CC2)OCCCC[C@H](C)Oc2ccc(NC(=O)Nc3cccc4ccccc34)cc2C1=O
AC35 [1]: 43 µM

Cc1c(NC(=O)c2cccc(NC(=O)COc3ccccc3C#N)c2)c(=O)n(-c2ccccc2)n1C
AC35 [1]: 45.6 µM

CC12CCC3C(CC=C4CC(O)CCC43CO)C1CCC2OC(=O)c1ccccc1 (centres undefined)
AC35 [1]: 45.6 µM

C[C@H](CO)N1C[C@H](C)[C@H](CN(C)C(=O)Nc2ccc(C(F)(F)F)cc2)OCCCC[C@H](C)Oc2ccc(NC(=O)Nc3ccc(F)cc3)cc2C1=O
AC35 [1]: 21.5 µM

CCc1sc(C(=O)Nc2ncccc2O)cc1C
activity change, negative = inhibition ([2]; at 19.5 µM (top of the series)): -13.2% (inactive)

C/C(=N\NC(=S)N1CCCCC1)c1ccccn1
AC35 [1]: < 0.08 µM
